From patent US5843959A, “Methods and bicyclic polyamine compositions for the treatment of inflammation” (University of Florida Research Foundation, Inc., priority 1997, dated 1998)
Values joined by “and” are separate entries in the source; they are usually repeats but may differ in a detail not shown here. Identical values can stand only once.

How the values were obtained:
[1] = system: adjuvant-induced arthritis; test: Adjuvant-induced arthritis model in Lewis rats (Table 7); conditions: p.o. 5 days, DiPIPs 100 mg/kg, Voltaren and indomethacin 6 mg/kg; for % FINAL INHIBITION: Day 28-0
Protocol: Four groups consisting of 6 male Lewis rats weighing 150-200 g were injected subcutaneously at the base of the tail with 0.1 ml of CFA. Drugs to be assayed were administered 5 days beginning on the day of the adjuvant injection. The paw volume of the right and left rear paw of each rat were measured on the day of adjuvant injection and at regular intervals for 30 days thereafter.
The emulsion was injected subcutaneously at the base of the tail and induced the arthritic state. Measurements of paw volume were made for 30 days to monitor paw swelling. Drug treatment began on Day 0.
Four groups consisting of 10 male Lewis rats weighing 150-200 g were injected subcutaneously at the base of the tail with 0.1 ml of CFA. Drugs to be assayed were administered for 5 days beginning on the day of the adjuvant injection.

[2] = system: carrageenan-induced edema in rat paw; test: Inhibition of carrageenan-induced paw edema in rats; conditions: vs vehicle control; aspirin 150 mg/kg p.o., hydrocortisone 25 mg/kg p.o., PIP[4,4,4] 30 mg/kg i.p.; >30% significant
[3] = system: adjuvant-induced arthritis; conditions: for Inhibition % B (5-0): 5th day after 5 doses; for Inhibition % B (5-0) / Inhibition % A (1-0): p.o.: PIP[4,4,4] 100, hydrocortisone 30, indomethacin 5 mg/kg; for Inhibition % B (5-0) / Inhibition % A (1-0) / Inhibition % C (5-1) / Inhibition % D (14-0) / Inhibition % F (18-14) / Inhibition % E (18-0): >30% significant; for Net swelling of paw volume A (1-0), average: Day 1 - Day 0, average; for Net swelling of paw volume B (5-0), average: Day 5 - Day 0, average; for Net swelling of paw volume B (5-0): Day 5 - Day 0, individual rat; for Net swelling of paw volume C (5-1), average: Day 5 - Day 1, average; for Net swelling of paw volume C (5-1): Day 5 - Day 1, individual rat; for Polyarthritis E (ears) / Polyarthritis N (noses) / Polyarthritis P (paws) / Polyarthritis T (tails): Day 19, individual rat; for Inhibition % A (1-0): first day, after one dose; for Inhibition % C (5-1): paw volume change Day 1 to Day 5; for Net swelling of paw volume D (14-0), average / Net swelling of paw volume D (14-0) / Inhibition % D (14-0) / Inhibition % F (18-14) / Net swelling of paw volume E (18-0), average / Net swelling of paw volume E (18-0) / Net swelling of paw volume F (18-14), average / Net swelling of paw volume F (18-14) / Inhibition % E (18-0): untreated paw; for Net swelling of paw volume D (14-0), average: Day 14 - Day 0, average; for Net swelling of paw volume D (14-0): Day 14 - Day 0, individual rat; for Inhibition % D (14-0): Day 14 relative to Day 0; for Inhibition % F (18-14): Day 14 to Day 18; for Net swelling of paw volume E (18-0), average: Day 18 - Day 0, average; for Net swelling of paw volume E (18-0): Day 18 - Day 0, individual rat; for Net swelling of paw volume F (18-14), average: Day 18 - Day 14, average; for Net swelling of paw volume F (18-14): Day 18 - Day 14, individual rat; for Inhibition % E (18-0): Day 18 relative to Day 0; for Weight gain reductions (in words): vs vehicle-treated animals, 18 day study
[4] = p.o. × 5: PIP[4,4,4] 100, hydrocortisone 30, indomethacin 5 mg/kg

SMILES	% FINAL INHIBITION [1]	% Edema inhibition [2] [%]	Inhibition % B (5-0) [3] [%]	Net swelling of paw volume A (1-0), average [3, 4] [mL]	Net swelling of paw volume B (5-0), average [3, 4] [mL]	Net swelling of paw volume B (5-0) [3, 4]	Net swelling of paw volume C (5-1), average [3, 4] [mL]	Net swelling of paw volume C (5-1) [3, 4]	Polyarthritis E (ears) [3, 4]	Polyarthritis N (noses) [3, 4]	Polyarthritis P (paws) [3, 4]	Polyarthritis T (tails) [3, 4]	Inhibition % A (1-0) [3] [%]	Inhibition % C (5-1) [3, 4] [%]	Net swelling of paw volume D (14-0), average [3, 4] [mL]	Net swelling of paw volume D (14-0) [3, 4]	Inhibition % D (14-0) [3, 4] [%]	Inhibition % F (18-14) [3, 4] [%]	Net swelling of paw volume E (18-0), average [3, 4] [mL]	Net swelling of paw volume E (18-0) [3, 4]	further results
C(CCNC1CCNCC1)CNC1CCNCC1 [DiPIP[3,4,3], N,N'-Bis(4-piperidinyl)-1,4-butanediamine]	70% and 41%																				
C[C@]12CCC(=O)C=C1CC[C@@H]1[C@@H]2[C@@H](O)C[C@@]2(C)[C@H]1CC[C@]2(O)C(=O)CO [Hydrocortisone]		32	36	0.73	1.06	0.89 mL and 0.96 mL and 0.86 mL and 0.98 mL and 1.61 mL	0.33	0.11 mL and 0.31 mL and 0.16 mL and 0.91 mL	-	-	+ and -	-	12	60	0.35	0.43 mL and 0.31 mL and 0.30 mL and 0.38 mL and 0.33 mL	22	37	0.54	0.53 mL and 0.38 mL and 0.66 mL and 0.72 mL and 0.41 mL	Net swelling of paw volume F (18-14), average [3, 4]: 0.19 mL; Net swelling of paw volume F (18-14) [3, 4]: 0.10 mL and 0.07 mL and 0.36 mL and 0.34 mL and 0.08 mL; Inhibition % E (18-0) [3, 4]: 28%; Weight gain reductions (in words) [3]: did not affect weight gain reductions
CC(=O)Oc1ccccc1C(=O)O [Aspirin]		46																			
O=C(O)Cc1ccccc1Nc1c(Cl)cccc1Cl [Voltaren]	67%																				FINAL DAY 28-0 (paw volume) [1]: .629; INITIAL DAY 14-0 (paw volume) [1]: .232
COc1ccc2c(c1)c(CC(=O)O)c(C)n2C(=O)c1ccc(Cl)cc1 [Indomethacin]	93%		48	0.53	0.85	0.84 mL and 0.86 mL and 0.72 mL and 0.81 mL and 1.02 mL	0.32	0.31 mL and 0.28 mL and 0.14 mL and 0.30 mL and 0.57 mL	-	-	-	-	36	61	0.28	0.20 mL and 0.40 mL and 0.26 mL and 0.42 mL and 0.12 mL	38	50	0.43	0.43 mL and 0.50 mL and 0.51 mL and 0.49 mL and 0.22 mL	FINAL DAY 28-0 (paw volume) [1]: 0.14; INITIAL DAY 14-0 (paw volume) [1]: .004; Net swelling of paw volume A (1-0) ([3]; Day 1 - Day 0, individual rat, p.o. × 5: PIP[4,4,4] 100, hydrocortisone 30, indomethacin 5 mg/kg): 0.53 mL and 0.58 mL and 0.51 mL and 0.45 mL; B.W. Gain (18-0), average ([3]; rat, in vivo): 8 g; Net swelling of paw volume F (18-14), average [3, 4]: 0.15 mL; Net swelling of paw volume F (18-14) [3, 4]: 0.23 mL and 0.10 mL and 0.25 mL and 0.07 mL; Inhibition % E (18-0) [3, 4]: 43%; Weight gain reductions (in words) [3]: did not affect weight gain reductions
